What was measured:
[1] = biological target: T1, membrane receptors of pituitary of male rats (Rattus norvegicus, UniProt P30969); assay: Binding affinity for membrane receptors of rat pituitary using 125I-labeled [D-Trp6]LHRH
T1 construct: from tissue; host or cells: pituitary of male rats (membranes)
T1 sequence (P30969 1-327): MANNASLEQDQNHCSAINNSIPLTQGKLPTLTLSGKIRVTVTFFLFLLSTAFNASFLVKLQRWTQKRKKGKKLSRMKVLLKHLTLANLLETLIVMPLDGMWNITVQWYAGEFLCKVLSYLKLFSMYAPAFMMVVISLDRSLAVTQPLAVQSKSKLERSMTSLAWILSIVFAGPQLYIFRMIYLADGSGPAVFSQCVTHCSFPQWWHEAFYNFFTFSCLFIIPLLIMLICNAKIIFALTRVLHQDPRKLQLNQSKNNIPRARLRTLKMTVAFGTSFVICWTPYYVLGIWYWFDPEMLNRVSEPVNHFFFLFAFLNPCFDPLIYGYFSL
Procedure: (§1) This is determined by using labelled LHRH and [D-Trp^6 ]LHRH. The assay is carried out similarly to that described by T. Kadar et al., Proc. Natl. Acad. Sci. USA, 85, 890-894 (1988).
(§2) Table 2 presents the antiovulatory activity of the claimed compounds having LHRH-inhibiting properties. The inhibitory action was determined in vivo, in 4-day cycling rats as described [A. Corbin and C. W. Beattie, Endocr. Res. Commun., 2, 1-23 (1975)]. Affinities of the claimed compounds to membrane receptors of rat pituitary and human breast cancer cells are also given in Tables 1 and 2 as determined by using [^125 I,D-Trp^6 ]LHRH.
(§3) **Affinity constants of the peptides for the first receptor class (i.e.
(§4) for high affinity binding sites) of pituitary of male rats and human
(§5) breast cancer cells, respectively, as determined by using ^125
(§6) Ilabeled [DTrp^6 ]LHRH.
(§7) breast cancer cells, respectively, were determined by using ^125

[2] = biological target: T2, membrane receptors of human breast cancer cells (Homo sapiens, UniProt P30968); assay: Binding affinity for membrane receptors of human breast cancer cells using 125I-labeled [D-Trp6]LHRH
T2 construct: endogenous in cells; host or cells: human breast cancer cells (membranes)
T2 sequence (P30968 1-328): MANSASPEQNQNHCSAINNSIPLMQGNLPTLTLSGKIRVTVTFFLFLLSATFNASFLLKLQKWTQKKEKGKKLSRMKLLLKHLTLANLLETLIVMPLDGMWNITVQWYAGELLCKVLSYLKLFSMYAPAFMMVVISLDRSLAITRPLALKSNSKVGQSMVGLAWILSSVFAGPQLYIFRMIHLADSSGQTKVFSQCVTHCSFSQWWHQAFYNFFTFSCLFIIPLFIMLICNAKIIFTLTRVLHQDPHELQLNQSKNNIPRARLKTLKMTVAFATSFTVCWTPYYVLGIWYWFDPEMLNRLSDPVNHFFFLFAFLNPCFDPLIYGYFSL
Procedure: as §1, §2, §3, §4, §5, §6, §7

4-day cycling rats = assay: In vivo antiovulatory activity in 4-day cycling rats; design: species or system rat; details: Dose 10 μg/rat
Procedure: This activity of the peptides is determined in 4-day-cycling rats as described [A. Corbin and C. W. Beattie, Endocr. Res. Commun., 2, 1-23 (1975)].
as §2
*LHRH-inhibiting potencies were assayed in 4day cyclic rats.

[3] = system: dispersed rat pituitary cell superfusion system; assay: LH release in dispersed rat pituitary cell superfusion system (agonistic activity); format: cell-based; details: Table 1; peptide infused 3 min, LH released compared to 3 nM LHRH
Procedure: *LH responses to the analogues were determined in dispersed rat pituitary
cell superfusion system.

[4] = system: rat mammary tumor cell line MT-4; assay: Inhibition of 3H-thymidine incorporation into DNA of MT-4 monolayer cultures; format: cell-based; details: for DPM/Well × 1000: mean +/- standard error
Procedure: (d) Ability of peptides of Formula I to inhibit incorporation of [^3 H]thymidine into DNA of monolayer cultures the rat mammary tumor cell line MT-4
This is assayed as described [V. K. Sondak et al., Cancer Research, 44, 1725-1728 (1984); F. Holzel et al., J. Cancer Res. Clin. Oncol. 109, 217-226 (1985); M. Albert et al., J. Cancer Res. Clin. Oncol. 109, 210-216 (1985)].
To obtain information about the cytotoxic properties of the compounds, the inhibition of ^3 H-thymidine incorporation into DNA of monolayer cultures of the rat mammary tumor cell line MT-4 was studied. Experiments started with 100K MT-4 cells/plate on day 0. Dose was changed 3 times, total incubation time with the sample was 5 days. 1 μCu ^3 H-thymidine/ml was added on day 4.

[5] = Table 2, high affinity binding sites
[6] = Table 1, high affinity binding sites
[7] = DME Medium + 0% Serum, 1 ng/ml (6 × 10^-10 M)
[8] = DME Medium + 0% Serum, 10 ng/ml
[9] = DME Medium + 0% Serum, 100 ng/ml
[10] = DME Medium + 0% Serum, 1000 ng/ml
[11] = DME Medium + 0% Serum, 2000 ng/ml
[12] = DME Medium + 10% Serum, 1 ng/ml (6 × 10^-10 M)
[13] = DME Medium + 10% Serum, 10 ng/ml
[14] = DME Medium + 10% Serum, 100 ng/ml
[15] = DME Medium + 10% Serum, 1000 ng/ml
[16] = DME Medium + 10% Serum, 2000 ng/ml

For “Ac-D-Nal(2)-D-Phe(4 Cl)-D-Trp-Ser-Arg-D-Lys[(Cu^++)(POL)2 (DL-A2 pr)]-Leu-Arg-Pro-D-Ala-NH2 [Example XXIII]”, the “Binding affinity, Ka1, for membrane receptors of pituitary” value (shortened to “Binding affinity, Ka1 … of pituitary”) [1, 5] was 7.622 nM⁻¹, the “Binding affinity, Ka1, for membrane receptors of cancer cells” value (from here on “Binding affinity, Ka1 … of cancer cells”) [2, 5] was 3.408 nM⁻¹ and the “% Blockade of ovulation” value (4-day cycling rats) was 40%.
For “Ac-D-Nal(2)-D-Phe(4Cl)-D-Pal(3)-Ser-Arg-D-Lys[(Cu^++)(SAL)2 (A2 bu-Eac)]-Leu-Arg-Pro-D-Ala-NH2 [XXVIII]”, the “Binding affinity, Ka1 … of cancer cells” value [2, 5] was 0.192 nM⁻¹.
“Ac-D-Nal(2)-D-Phe(4Cl)-D-Pal(3)-Ser-Arg-D-Lys[(PtCl2)-A2 bu-Eac)]-Leu-Arg-Pro-D-Ala-NH2 [XXVII]” was tested, and the “Binding affinity, Ka1 … of cancer cells” value [2, 5] was 2.152 nM⁻¹.
For “[D-Lys[(Cu^++)(SAL)2 (L-A2 pr)]^6 ]LHRH [VIA]”, the “Hormonal activity, LH responses rel. to LHRH (= 1)” value (from here on “Hormonal activity”) [3] was 12, the “Binding affinity, Ka1 … of pituitary” value [1, 6] was 3.051 nM⁻¹ and the “Binding affinity, Ka1 … of cancer cells” value [2, 6] was 1.348 nM⁻¹.
“[D-Lys[(Ni^++)(SAL)2(D-A2 pr)]^6 ]LHRH [VIIIB]” was tested, and the “Hormonal activity” value [3] was 10, the “Binding affinity, Ka1 … of pituitary” value [1, 6] was 6.457 nM⁻¹ and the “Binding affinity, Ka1 … of cancer cells” value [2, 6] was 3.334 nM⁻¹.
For “[D-Lys[(Ni^++)(SAL)2(L-A2 pr)]^6 ]LHRH [VIIIA]”, the “Hormonal activity” value [3] was 12, the “Binding affinity, Ka1 … of pituitary” value [1, 6] was 9.710 nM⁻¹ and the “Binding affinity, Ka1 … of cancer cells” value [2, 6] was 5.234 nM⁻¹.
In the case of “pGlu-His-Trp-Ser-Tyr-D-Lys[(Cu^++)(CISAL)2 (DL-A2 pr)]-Leu-Arg-Pro-Gly-NH2 [Example IX]”, the “Hormonal activity” value [3] is reported as 10, the “Binding affinity, Ka1 … of pituitary” value [1, 6] is reported as 8.625 nM⁻¹ and the “Binding affinity, Ka1 … of cancer cells” value [2, 6] is reported as 3.995 nM⁻¹.
“pGlu-His-Trp-Ser-Tyr-D-Lys[(Cu^++)(FUR)2 (DL-A2 pr)]-Leu-Arg-Pro-Gly-NH2 [XVII]” was tested, and the “Hormonal activity” value [3] was 10, the “Binding affinity, Ka1 … of pituitary” value [1, 6] was 1.770 nM⁻¹ and the “Binding affinity, Ka1 … of cancer cells” value [2, 6] was 0.536 nM⁻¹.
For “pGlu-His-Trp-Ser-Tyr-D-Lys[(Cu^++)(PEN)2 (A2 pr)]-Leu-Arg-Pro-Gly-NH2 [Example XXI]”, the “Hormonal activity” value [3] was 10.6, the “Binding affinity, Ka1 … of pituitary” value [1, 6] was 10.989 nM⁻¹ and the “Binding affinity, Ka1 … of cancer cells” value [2, 6] was 5.096 nM⁻¹.
For “pGlu-His-Trp-Ser-Tyr-D-Lys[(Cu^++)(POL)2 (DL-A2 bu)]-Leu-Arg-Pro-Gly-NH2 [XXV]”, the “Hormonal activity” value [3] was 5.5, the “Binding affinity, Ka1 … of pituitary” value [1, 6] was 6.405 nM⁻¹ and the “Binding affinity, Ka1 … of cancer cells” value [2, 6] was 3.141 nM⁻¹.
“pGlu-His-Trp-Ser-Tyr-D-Lys[(Cu^++)(POLP)2 (DL-A2 bu)]-Leu-Arg-Pro-Gly-NH2 [Example XVI]” was tested, and the “Hormonal activity” value [3] was 1.5, the “Binding affinity, Ka1 … of pituitary” value [1, 6] was 9.751 nM⁻¹ and the “Binding affinity, Ka1 … of cancer cells” value [2, 6] was 5.038 nM⁻¹.
“pGlu-His-Trp-Ser-Tyr-D-Lys[(Cu^++)(SAL)2 (A2 pr)]-Leu-Arg-Pro-Gly-NH2 [Example VII]” was tested, and the “Hormonal activity” value [3] was 10, the “Binding affinity, Ka1 … of pituitary” value [1, 6] was 7.968 nM⁻¹ and the “Binding affinity, Ka1 … of cancer cells” value [2, 6] was 3.589 nM⁻¹. The “% Inhibition” value [4, 7] was 41%, the “DPM/Well × 1000” value [4, 7] was 249 +/- 30.5 DPM/Well × 1000 and the “% Inhibition” value [4, 8] was 42%. The “DPM/Well × 1000” value [4, 8] was 242 +/- 32.1 DPM/Well × 1000, the “% Inhibition” value [4, 9] was 56% and the “DPM/Well × 1000” value [4, 9] was 186 +/- 13.2 DPM/Well × 1000. For the same substance, the “% Inhibition” value [4, 10] was 52%, the “DPM/Well × 1000” value [4, 10] was 204 +/- 40.9 DPM/Well × 1000 and the “% Inhibition” value [4, 11] was 41%. For the same substance, the “DPM/Well × 1000” value [4, 11] was 249 +/- 45.1 DPM/Well × 1000, the “% Inhibition” value [4, 12] was 53% and the “DPM/Well × 1000” value [4, 12] was 48 +/- 8.6 DPM/Well × 1000. The “% Inhibition” value [4, 13] was 61%, the “DPM/Well × 1000” value [4, 13] was 40 +/- 6.7 DPM/Well × 1000 and the “% Inhibition” value [4, 14] was 59%. The “DPM/Well × 1000” value [4, 14] was 42 +/- 10.4 DPM/Well × 1000, the “% Inhibition” value [4, 15] was 65% and the “DPM/Well × 1000” value [4, 15] was 36 +/- 5.1 DPM/Well × 1000. For the same substance, the “% Inhibition” value [4, 16] was 62%, the “DPM/Well × 1000” value [4, 16] was 39 +/- 4.6 DPM/Well × 1000 and the “inhibition of 3H-thymidine incorporation into DNA (in words)” value ([4]; concentration of 6×10^-10 M) was “strong inhibitory effect”.
With “pGlu-His-Trp-Ser-Tyr-D-Lys[(Cu^++)(SAL)2 (DL-A2 bu)]-Leu-Arg-Pro-Gly-NH2 [XIV]” the “Hormonal activity” value [3] was 25, the “Binding affinity, Ka1 … of pituitary” value [1, 6] was 5.589 nM⁻¹ and the “Binding affinity, Ka1 … of cancer cells” value [2, 6] was 1.628 nM⁻¹.
With “pGlu-His-Trp-Ser-Tyr-D-Lys[(Ni^++)(CISAL)2 (DL-A2 pr)]-Leu-Arg-Pro-Gly-NH2 [Example X]” the “Hormonal activity” value [3] was 4, the “Binding affinity, Ka1 … of pituitary” value [1, 6] was 4.513 nM⁻¹ and the “Binding affinity, Ka1 … of cancer cells” value [2, 6] was 2.236 nM⁻¹.
For “pGlu-His-Trp-Ser-Tyr-D-Lys[(PtCl2)(DL-A2 pr)]-Leu-Arg-Pro-Gly-NH2 [Example III]”, the “Hormonal activity” value [3] was 55, the “Binding affinity, Ka1 … of pituitary” value [1, 6] was 3.285 nM⁻¹ and the “Binding affinity, Ka1 … of cancer cells” value [2, 6] was 1.743 nM⁻¹.
For “pGlu-His-Trp-Ser-Tyr-D-Lys[Cu^++)(POL)2 (DL-A2 pr)]-Leu-Arg-Pro-Gly-NH2 [XVIII]”, the “Hormonal activity” value [3] was 9, the “Binding affinity, Ka1 … of pituitary” value [1, 6] was 5.817 nM⁻¹ and the “Binding affinity, Ka1 … of cancer cells” value [2, 6] was 3.005 nM⁻¹.
With “pGlu-His-Trp-Ser-Tyr-D-Lys[Cu^++)(POLP)2 (A2 pr)]-Leu-Arg-Pro-Gly-NH2 [XIX]” the “Hormonal activity” value [3] was 0.3, the “Binding affinity, Ka1 … of pituitary” value [1, 6] was 8.676 nM⁻¹ and the “Binding affinity, Ka1 … of cancer cells” value [2, 6] was 4.528 nM⁻¹.

From patent publication US5258492A, “LHRH analogues with cytotoxic moieties at the sixth position” (The Administrators of the Tulane Educational Fund, priority 1991, dated 1993)
